Results published in US20240108610A1, “RECTAL ADMINISTRATION OF ROFLUMILAST FOR THE TREATMENT OF CROHN'S DISEASE” (King Abdulaziz University, priority 2022, published 2024).
Marks after values point to notes of the source that are not given here.

Key:
Format in all cases: in vivo, rat
MPO = assay: Colonic MPO in colonic tissue homogenates, TNBS-induced colitis; details: means±SE, n = 8
Protocol: Chronic colitis was induced by weekly rectal injections of increasing doses of TNBS over 6 weeks (15, 30, 45, 60, 60, and 60 mg from day 0 to day 35), as previously described (4,12). Briefly, after food deprivation for 24 h, rats were anesthetized with an intraperitoneal injection of 1% isoflurane. TNBS was dissolved in ethanol (50%) and instilled into the colon using a cannula (0.25 mL), and then the rats were held upside down for 3 min to prevent escape of the intracolonic TNBS. Roflumilast was dissolved in dimethyl sulfoxide and diluted in 0.5% carboxymethyl cellulose sodium to a final concentration of 5.0 mg·kg^−1·day^−1 as previously described (13). Five groups of rats (n=8) were established: normal control (NC group), TNBS-treated (TNBS group, positive control), and three TNBS-treated groups that received oral sulfasalazine (SS group, 500 mg/kg) (14), oral roflumilast (by gastric gavage, OR group, 5 mg/kg), or rectal roflumilast (RR group, 5 mg/kg). Treatments were administered once daily in a volume of 200 μL for 15 days starting 48 h after the induction of colitis (from day 37) (15), and the control rats received equal amounts of vehicle. At the end of the treatment period, the rats were evaluated with the colitis activity score. […] At the end of the 15-day treatment period, the rats were sacrificed by cervical dislocation, and the colon was isolated, cleaned of feces, and measured for weight and length. Colonic myeloperoxidase (MPO) activity and glutathione (GSH) and malonaldehyde (MDA) levels were measured. […] The levels of MPO (a marker of neutrophil activity), GSH (one of the most important cellular antioxidants), and MDA (an indicator of lipid peroxidation) in colonic tissue homogenates were measured using the commercially available kits as previously described: MPO ELISA kit (Innovative Research) (18), GSH colorimetric assay kit (Innovative Research) (19), and MDA ELISA kit (Neobio Lab Comp., USA) (20).

TNF-α = assay: Serum TNF-α ELISA in TNBS-induced colitis; details: means±SE, n = 8
Protocol: Chronic colitis was induced by weekly rectal injections of increasing doses of TNBS over 6 weeks (15, 30, 45, 60, 60, and 60 mg from day 0 to day 35), as previously described (4,12). Briefly, after food deprivation for 24 h, rats were anesthetized with an intraperitoneal injection of 1% isoflurane. TNBS was dissolved in ethanol (50%) and instilled into the colon using a cannula (0.25 mL), and then the rats were held upside down for 3 min to prevent escape of the intracolonic TNBS. Roflumilast was dissolved in dimethyl sulfoxide and diluted in 0.5% carboxymethyl cellulose sodium to a final concentration of 5.0 mg·kg^−1·day^−1 as previously described (13). Five groups of rats (n=8) were established: normal control (NC group), TNBS-treated (TNBS group, positive control), and three TNBS-treated groups that received oral sulfasalazine (SS group, 500 mg/kg) (14), oral roflumilast (by gastric gavage, OR group, 5 mg/kg), or rectal roflumilast (RR group, 5 mg/kg). Treatments were administered once daily in a volume of 200 μL for 15 days starting 48 h after the induction of colitis (from day 37) (15), and the control rats received equal amounts of vehicle. At the end of the treatment period, the rats were evaluated with the colitis activity score. To detect the effects of the treatments on systemic inflammatory processes, blood was collected for measurements of the proinflammatory mediators TNF-α, IL-2, and IL-6. At the end of the 15-day treatment period, the rats were sacrificed by cervical dislocation, and the colon was isolated, cleaned of feces, and measured for weight and length. Colonic myeloperoxidase (MPO) activity and glutathione (GSH) and malonaldehyde (MDA) levels were measured. The colon was examined macroscopically for gross changes and microscopically in sections stained with hematoxylin and eosin (H&E), Masson trichrome, and Periodic Acid Schiff (PAS) stains as well as KI-67 and TNF-α immunostaining. Blood was collected through cardiac puncture. The serum was obtained and stored at −80° C. until analysis. […]

[1] = tested on: trinitrobenzenesulfonic acid (TNBS)-induced colitis; assay: Disease activity score in TNBS-induced chronic colitis; details: oral, once daily for 15 days; sulfasalazine 500 mg/kg, roflumilast 5 mg/kg; vs TNBS group
Protocol: Chronic colitis was induced by weekly rectal injections of increasing doses of TNBS over 6 weeks (15, 30, 45, 60, 60, and 60 mg from day 0 to day 35), as previously described (4,12). Briefly, after food deprivation for 24 h, rats were anesthetized with an intraperitoneal injection of 1% isoflurane. TNBS was dissolved in ethanol (50%) and instilled into the colon using a cannula (0.25 mL), and then the rats were held upside down for 3 min to prevent escape of the intracolonic TNBS. Roflumilast was dissolved in dimethyl sulfoxide and diluted in 0.5% carboxymethyl cellulose sodium to a final concentration of 5.0 mg·kg^−1·day^−1 as previously described (13). […] At the end of the treatment period, the rats were evaluated with the colitis activity score. […] At the end of the 15-day treatment period, the rats were sacrificed by cervical dislocation, and the colon was isolated, cleaned of feces, and measured for weight and length. Colonic myeloperoxidase (MPO) activity and glutathione (GSH) and malonaldehyde (MDA) levels were measured. […] The colitis activity index was determined to evaluate the activity of intestinal inflammation as previously described with a slight modification (16). […]

[2] = oral, once daily for 15 days, SS 500 mg/kg, OR 5 mg/kg
[3] = rectal, 5 mg/kg once daily for 15 days

SMILES | colonic MPO activity (MPO; [2]) | colonic MPO activity (MPO; [3]) | serum level of TNF-α (TNF-α; [2]) | serum level of TNF-α (TNF-α; [3]) | Disease activity score [1]
O=C(Nc1c(Cl)cncc1Cl)c1ccc(OC(F)F)c(OCC2CC2)c1 [roflumilast] | 23.89 ± 0.92^a, b, c μ/g | 28.17 ± 1.00^a μ/g | 38.87 ± 2.33^a, b, f pg/mL | 79.37 ± 1.88^a, c, e pg/mL | decreased the score more than rectal roflumilast
O=C(O)c1cc(/N=N/c2ccc(S(=O)(=O)Nc3ccccn3)cc2)ccc1O [sulfasalazine] | 18.38 ± 0.87^a μ/g | – | 28.93 ± 0.5^b, d pg/mL | – | greatest decrease
